These results are taken from US8796329B2, “Method for controlling angiogenesis in animals” (Ziopharm Oncology, Inc., priority 2006, dated 2014).

Each structure is given as a SMILES string. Values joined by “and” are separate entries in the source; they are usually repeats but may differ in a detail not shown here. Equal entries are not always repeated.

What is called IC50 is the midpoint of a concentration-inhibition curve. A lower IC50 goes with greater potency in that assay.

Data set [1] deals with LL47 (Fibroblast). The data set can be described thus: CellTiter-Glo Luminescent Cell Viability Assay, LL47. Format: cell-based. Conditions: Homo sapiens. On the procedure: (§1) CellTiter-Glo Luminescent Cell Viability Assay (Promega Corporation) is based on quantification of ATP levels in cell cultures. The amount of ATP produced in cell culture reflects the number of viable cells. […] HUVECs and LL47 cells were seeded in 96-well plates in their growth medium. After 24 hours, various doses of the compound of formula (II) were added to both cultures side by side, having six replicates for each dose. At different treatment time points, CellTiter-Glo reagent were added to the cultures following the manufacturer's instructions; luminescence signals were measured with an EnVision™ Multilabel Reader (Perkin Elmer, Wellesley, Mass.) The blank control groups were given saline vehicle only, and positive control groups were given 10 μM T-araC (provided by Southern). Data was analyzed for the mean and standard deviation for each treatment condition. IC50 values of the compound of formula (II) against HUVEC and LL47 cell cultures were determined based on the dose response curves as shown in FIG. 1. There were several test drug concentrations with three treatment time points (2, 4, and 6 days). For the 6-day assay experiment, the culture media with different test concentration treatments was exchanged at Day 4.
A general note: In ATP-based viability assays light output follows the ATP content of the culture.

Data set [2] relates to blood vessel density in Matrigel plugs (VEGF, FGFb, heparin as angiogenic stimuli). Briefly: Matrigel Plug in vivo assay, intravenous dosing. On the set-up: species or system C57BL/6 mice. Here is the method: Female C57BL/6 mice around 10-weeks old and Matrigel Matrix High Concentration (from Becton Dickinson) mixed with 50 ng/mL VEGF, 50 ng/mL FGFb, and heparin 3 ng/mL as angiogenic stimuli were used for the Matrigel Plug experiments. There were two groups of mice, five mice in each group, with one group serving as a control and the second group expected to be treated once daily for 9 days with a compound of formula II at 100 mg/kg/dose (0.2 mL/10 g of body weight) by intravenous (i.v.) injection. The control group received oral saline as a vehicle. Each mouse received two Matrigel plugs. On Day 0, 500 μL Matrigel at 4° C. was subcutaneously injected to each side of the mouse, wherein the injection area was shaved. To increase the contact area of injected Matrigel into subcutaneous tissues and form a round shape plug, a wide subcutaneous pocket was formed by swaying the needle point right and left after a routine subcutaneous insertion. The injection was done rapidly with an appropriate size needle (21 G-25 G) to ensure the entire contents of the syringe were delivered in one plug. The injected Matrigel rapidly formed a single solid gel plug. […] Plugs from each group were collected at Day 12. The mice were euthanized and the mouse skin was pulled back to expose the plug. The plugs were dissected out and fixed in 10% formalin for histological analysis. Sections of 5 μm from paraffin-embedded plugs were stained with H&E. Blood vessel density in a cross sectional area of each Matrigel plug was analyzed using Image Pro-Plus software. For each group of mice, at least six Matrigel plugs were quantitatively analyzed to assess any statistical significant difference of microvessel density between groups. The quantitation of microblood vessel density using a compound of formula (II) is shown below.

The test system of data set [3] is blood vessel density in Matrigel plugs. Briefly: Matrigel Plug in vivo assay, oral dosing. Conditions: 350 mg/kg/dose oral, once daily for 9 days, plugs Day 14, male CD2F1 mice. Here is the method:
Male CD2F1 mice were used for the Matrigel Plug experiment. There were two groups of mice, five mice in each group, with one group serving as a control and the second group was treated once daily for 9 days with a compound of formula II at 350 mg/kg/dose (0.2 mL/10 g of body weight) by oral administration in a saline solution. The control group received oral saline as a vehicle. Each mouse received two Matrigel plugs. On Day 0, 500 μL Matrigel at 4° C. was subcutaneously injected to each side of the mouse, wherein the injection area was shaved. The injection was done rapidly with an appropriate size needle (21 G-25 G) to ensure the entire contents of the syringe were delivered in one plug. The injected Matrigel rapidly formed a single solid gel plug. On Day 14, the mice were euthanized and the mouse skin was pulled back to expose the plug. The plugs were dissected out and fixed in 10% formalin for histological analysis. Sections of 5 μm from paraffin-embedded plugs were stained with haematoxylin and eosin (H&E) stain. Blood vessel density in a cross sectional area of each Matrigel plug was analyzed using Image Pro-Plus software. Each of the plugs was fixed in 10% formalin.

The subject of data set [4] is HUVEC (Endothelia). The data set can be described thus: 3H-thymidine incorporation assay for HUVEC. Format: cell-based. Particulars: Homo sapiens. On the procedure: HUVEC cultures were seeded and treated in 96-well plates, as described above for the CellTiter-Glo viability assay. After treatment of HUVEC cultures with the compound of formula (II), 96-well plates were pulsed with 1 μCi of ^3H-thymidine for the final 6-18 hours of culture and then harvested with a semiautomatic cell harvester onto filters that bind the DNA. Samples were counted in a PerkinElmer Microbeta scintillation and luminescence counter (Trilux) to determine the amount of 3H-TdR uptake. The data was then transferred and processed using an Excel spreadsheet program to provide for the mean and standard deviation for % of control values. The results were analyzed by calculating IC50 values and including a table showing % of control values for each compound tested. There were several test drug concentrations with three treatment time points (2, 4, and 6 days) and 6 replicates for each test concentration as shown in FIG. 2. For the 6-day assay experiment, the culture media with different test concentration treatments was exchanged at Day 4.
A general note: Incorporation of labelled thymidine or its analogues reports DNA synthesis.

Data set [5] deals with P388 murine leukemia. The data set can be described thus: Response of ip implanted P388 murine leukemia to ip and po administration. Format: in vivo, mice. Particulars: for treatment-related deaths / increase in lifespan (ILS) / median day of death: qld×9; for increase in lifespan (ILS): p=0.000 vs vehicle; for median day of death: vehicle control 11.5. From the text:
Mice were implanted ip with one million cells of P388 murine leukemia using a 23-gauge needle. The P388 tumor line was maintained as an in vivo passage. The day of tumor implantation was designated as day 0, with treatment beginning on day 1 following tumor implantation. A sufficient number of mice were implanted so that animals with body weights in a range as narrow as possible were selected for the trial.
The compound of formula (II) was formulated in saline on the first day of treatment (day 1) at a concentration of 40 mg/mL. This solution was then diluted to the lower dosing concentrations of 30, 20, and 5 mg/mL. Enough of the compound of formula (II) was prepared on day 1 for the entire dosing period. Each dosing solution was then aliquoted for daily treatments, frozen at −20° C., and thawed on each day of injection. All injections were administered on the basis of exact body weight with the injection volume being 0.2 mL/10 g body weight.
The study consisted of four treatment groups of eight mice per group and one vehicle-treated control group with ten mice, for a total of 42 mice on the first day of treatment. The study design called for the compound of formula (II) to be administered once a day for nine consecutive days (qld×9) by oral gavage at dosages of 800, 600, and 400 mg/kg/dose and by ip injection at a dosage of 100 mg/kg/dose. The control group (group 1) was treated with the vehicle (saline), which was administered po on a qld×9 injection schedule.
The study was terminated 17 days after tumor implantation. Any animal that became moribund was euthanized prior to study termination.
Number of nonspecific deaths, median days of death, and the increase in lifespan based on the median day of death and expressed as a percentage (% ILS).
The individual animals' survival time was used as the endpoint in a life tables analysis (stratified Kaplan-Meier estimation followed by the Mantel-Haenszel log-rank test) in order to statistically compare the survival data between groups.

The test system of data set [6] is HUVEC (Endothelia). The data set can be described thus: CellTiter-Glo Luminescent Cell Viability Assay, HUVEC. It counts as cell-based. Conditions: Homo sapiens. On the procedure:
as §1

As for `C[As](C)SCC(NC(=O)CCC(N)C(=O)O)C(=O)NCC(=O)O` (stereo not drawn) [Compound of Formula (II)], the concentration for half-maximal inhibition (IC50) in data set [1] (48 h, Day 2) was less than 5 mM; in data set [1] (96 h, Day 4), less than 2 mM; in data set [1] (144 h, Day 6), less than 1.5 mM; in data set [4] (Day 2) it was less than 0.1 mM; in data set [4] (Day 4) it was less than 1 mM; in data set [4] (Day 6) it was less than 0.5 mM. Moreover, the 50% inhibitory concentration (IC50) in data set [6] (48 h, Day 2) was less than 1.5 mM; in data set [6] (96 h, Day 4), less than 1 mM; in data set [6] (144 h, Day 6), less than 0.5 mM. Further, the “toxicity to C57BL/6 mice” value in data set [2] (100 mg/kg/dose i.v. once daily, doses 6 and 8 skipped) is “higher than expected toxicity”. The “microblood vessel density, individual animal” value in data set [2] (100 mg/kg/dose i.v., 7 doses, plugs collected Day 12, female C57BL/6 mice, animals #1-#4) was 3 and 2 (2×) and 0. Moreover, the “microblood vessel density, Average” value in data set [2] (100 mg/kg/dose i.v., 7 doses, plugs collected Day 12, female C57BL/6 mice, control average 48.8) is listed as 1.75. For the same molecule, the “reduction of angiogenesis compared to the control” value in data set [3] is reported as “effective in reducing angiogenesis”. The “increase in lifespan, in words” value in data set [5] (100 mg/kg/dose ip) was “tolerated and resulted in a minimal increase in lifespan”; in data set [5] (400 mg/kg/dose po), “tolerated and elicited a minimal increase in lifespan”. The treatment-related deaths result in data set [5] (100 mg/kg/dose ip) is on record as “tolerated without treatment-related deaths”; in data set [5] (400 mg/kg/dose po) it was “No treatment-related deaths”. Moreover, the “increase in lifespan (ILS)” value in data set [5] (100 mg/kg/dose ip) came to 26%; in data set [5] (400 mg/kg/dose po), 30%. Further, the “median day of death” value in data set [5] (100 mg/kg/dose ip) turned out to be 14.5 days; in data set [5] (400 mg/kg/dose po), 15.0 days.
